What is called AUC(0-t) is exposure summed from dosing to a finite time, without extrapolation to infinity. Higher therefore signals more exposure. By Cmax is commonly meant the peak of the concentration-time curve. One may read the bioavailability as the share of a dose that reaches the circulation, judged against a reference dose that is usually intravenous. In general, IC50 refers to the concentration needed to halve the response being measured.

From patent US20230121086A1, “RORgT INHIBITOR, PREPARATION METHOD THEREOF AND USE THEREOF” (SUNSHINE LAKE PHARMA CO., LTD., priority 2020, published 2023) come the findings set out here.

Marks after values point to notes of the source that are not given here.

Data set [1] is described as follows: Pharmacokinetic evaluation in ICR mice. The data set is classed as in vivo. The following applies: mouse, plasma, po; for AUC(0-t) / Cmax / half-life: 5 mg/kg; for bioavailability: p.o. 5 mg/kg vs i.v. 1 mg/kg, read-out: Oral bioavailability (F).
The subject of another data set is rat liver microsomes. Put plainly: Stability in rat liver microsomes. The following applies: 0.5 mg protein/mL, 1.5 μM compound, 37° C., NADPH. In kind it is in vitro ADME. A general note: Microsomes from liver hold many membrane-bound enzymes, among them those of drug oxidation.
Data set [2] is described as follows: Stability in human liver microsomes. The data set is classed as in vitro ADME. Particulars: for half-life at 1.5 μM: pH 7.4, 0.5 mg protein/mL, 1.5 μM compound, 37° C., NADPH, read-out: Human Half-life t1/2; for CLint scaled at 1.5 μM: pH 7.4, intrinsic hepatic clearance inferred from microsomal incubation, read-out: Human Clearance rate.
Data set [3] concerns inflammatory factor IL-17. Briefly: LPS-induced mouse blood inflammatory factor IL-17 model. The data set is classed as in vivo, BALB/c mice.
Data set [4] concerns inflammatory factor IL-17. Briefly: IMQ-induced mouse psoriasis model, IL-17 in the ear. In kind it is in vivo, c57bl/6 mice. Particulars: for Inhibition rate (IL-17 in the ear) / IL-17 Concentration (pg/μg protein): 90 mg/kg; for IL-17 Concentration (pg/μg protein): ear homogenate supernatant, model group 29.78, normal group 0.00; for Effect on the secretion of IL-17 in the ear of mice compared with the model group: P<0.05.

Data set [5] in a line: Stability in rat liver microsomes. In kind it is in vitro ADME. The following applies: rat, liver microsomes, pH 7.4.
Data set [6] concerns IMQ-induced mouse psoriasis model. Put plainly: IMQ-induced mouse psoriasis model, ear weight. The data set is classed as in vivo, c57bl/6 mice. Particulars: for Effect on the ear weight of mice compared with the model group: P<0.05.
The next data set has as its target T1, RORγt (Homo sapiens, UniProt P51449).
T1 construct: […]
T1 sequence (P51449 269-508 limits assumed): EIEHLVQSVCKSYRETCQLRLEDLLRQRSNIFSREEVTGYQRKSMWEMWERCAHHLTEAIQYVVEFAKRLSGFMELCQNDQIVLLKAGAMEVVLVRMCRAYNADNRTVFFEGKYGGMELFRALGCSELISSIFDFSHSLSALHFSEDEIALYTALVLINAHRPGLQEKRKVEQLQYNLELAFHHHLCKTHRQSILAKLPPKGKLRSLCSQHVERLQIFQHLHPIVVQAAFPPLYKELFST
Briefly: Fluorescence resonance energy transfer (FRET) test, inhibitory activity of RORγt. The data set is classed as biochemical. The following applies: FRET, B-RORγt LBD / Biotin-SRC1; read-out: IC50.

Setting [7] is: Table 7, 30 mg/kg, plasma 4 hours after LPS, model group 174.69.
[8] abbreviates: 90 mg/kg, oral gavage, 10 days modeling, model group 28.12, normal group 13.03.
The mark [9] stands for this setting: Table 8, 15 mg/kg, plasma 4 hours after LPS, model group 81.33.

In the case of `CCS(=O)(=O)c1ccc([C@H](CC#N)NC(=O)c2ccc(N3CC(Oc4ccc(C(F)(F)F)cn4)C[C@H]3COC(F)F)cc2)cc1` (stereo in doubt) [Example 65, N-((S)-2-cyano-1-(4-(ethylsulfonyl)phenyl)ethyl)-4-((2S,4S)-2-((difluoromethoxy)methyl)-4-((5-(trifluoromethyl)pyridine-2-yl)oxy)pyrrolidin-1-yl)benzamide], in data set [1], the AUC(0-t) was 78 µM·h, the Cmax was 7 µM, the half-life is 7.9 h and the bioavailability turned out to be 82%. In the data set on rat liver microsomes, the “Rat Half-life t1/2 (min)” value is “Not metabolized”. In addition, in data set [2], the half-life at 1.5 μM was determined as 1.34 h and the CLint scaled at 1.5 μM was 21.6 mL/min/kg. The “Effect on LPS-induced mouse blood inflammatory factor IL-17” value in data set [3] is recorded as “significantly reduce”. This molecule also registered an Inhibition rate % in data set [3] (Table 7, 30 mg/kg) of 63%. Besides, the “IL-17 (pg/ml)” value in data set [3] (setting [7]) was 61.71 ** pg/ml.

`CCS(=O)(=O)c1ccc([C@H](CC#N)NC(=O)c2ccc(N3C[C@@H](Oc4ccc(C(F)(F)F)cc4)C[C@H]3COC(F)F)cc2)cc1` [Example 47, N—((S)-2-cyano-1-(4-(ethylsulfonyl)phenyl)ethyl)-4-((2S,4S)-2-((difluoromethoxy)methyl)-4-(4-(trifluoromethyl)phenoxy)pyrrolidin-1-yl)benzamide]: in data set [4], the “Inhibition rate (IL-17 in the ear)” value is 55.38%. Also, the “IL-17 Concentration (pg/μg protein)” value in data set [4] is given as 13.29 ** pg/μg protein. Also, in data set [4], the “Effect on the secretion of IL-17 in the ear of mice compared with the model group” value is “significantly reduce”. The area under the curve AUC(0-t) in data set [1] worked out at 23.5 µM·h. In data set [1], this molecule showed a Cmax of 2.4 µM. In addition, the half-life in data set [1] was 11.1 h. In addition, the bioavailability in data set [1] came out at 66%. For the same molecule, the half-life at 1.5 μM in data set [5] (0.5 mg protein/mL, 1.5 μM compound, 37° C., NADPH, read-out: Rat Half-life t1/2) is 22.4 h; in data set [2], 3.5 h. The CLint scaled at 1.5 μM in data set [5] (intrinsic hepatic clearance inferred from microsomal incubation, read-out: Rat Clearance rate) worked out at 1.9 mL/min/kg; in data set [2], 8.3 mL/min/kg. The “Inhibition rate % (ear weight)” value in data set [6] (90 mg/kg, oral gavage) stood at 19%. For the same molecule, the “Average ear weight (mg)” value in data set [6] (setting [8]) was 25.20* mg. Also, the “Effect on the ear weight of mice compared with the model group” value in data set [6] is reported as “significantly reduce”. Moreover, the “Effect on LPS-induced mouse blood inflammatory factor IL-17” value in data set [3] is “significantly reduce”. In addition, the Inhibition rate % in data set [3] (Table 6, 15 mg/kg) turned out to be 25.22%; in data set [3] (Table 7, 30 mg/kg), 51%; in data set [3] (Table 8, 15 mg/kg), 28.21%. Besides, the “IL-17 (pg/ml)” value in data set [3] (Table 6, 15 mg/kg, plasma 4 hours after LPS, model group 141.35) is reported as 104.98 * pg/ml; in data set [3] (setting [7]), 83.18 * pg/ml; in data set [3] (setting [9]), 56.69 ** pg/ml. Also, the half-inhibitory concentration (IC50) at RORγt was 10 nM.

As for `CCS(=O)(=O)c1ccc([C@H](CC#N)NC(=O)c2ccc(N3CC(Oc4ccc(OC(F)(F)F)cc4)C[C@H]3COC(F)F)cc2)cc1` (stereo in doubt) [Example 64, N-((S)-2-cyano-1-(4-(ethylsulfonyl)phenyl)ethyl)-4-((2S,4S)-2-((difluoromethoxy)methyl)-4-(4-(trifluoromethoxy)phenoxy)pyrrolidin-1-yl)benzamide], in data set [4], the “Inhibition rate (IL-17 in the ear)” value is given as 72.47%, the “IL-17 Concentration (pg/μg protein)” value is given as 8.20 ** pg/μg protein and the “Effect on the secretion of IL-17 in the ear of mice compared with the model group” value is “significantly reduce”. For the same molecule, in data set [1], the AUC(0-t) stood at 47.2 µM·h, the maximum concentration (Cmax) was 3.33 µM, the half-life is 13.2 h and the bioavailability is 91%. Further, the “Rat Half-life t1/2 (min)” value in the data set on rat liver microsomes is on record as “Not metabolized”. Moreover, the “Inhibition rate % (ear weight)” value in data set [6] (90 mg/kg, oral gavage) came to 22%. In addition, the “Average ear weight (mg)” value in data set [6] (setting [8]) is 24.84* mg. For the same molecule, the “Effect on the ear weight of mice compared with the model group” value in data set [6] is reported as “significantly reduce”. The “Effect on LPS-induced mouse blood inflammatory factor IL-17” value in data set [3] was “significantly reduce”. The Inhibition rate % in data set [3] (Table 7, 30 mg/kg) is 65%. In data set [3] (setting [7]), the “IL-17 (pg/ml)” value is on record as 58.48 ** pg/ml. Besides, at RORγt, the half-inhibitory concentration (IC50) was 11 nM.

For the molecule `CCS(=O)(=O)c1ccc([C@H](CC#N)NC(=O)c2ccc(N3C[C@@H](Oc4ccc(OC(F)F)cc4)C[C@H]3COC(F)F)cc2)cc1` [Example 22, N-((S)-2-cyano-1-(4-(ethylsulfonyl)phenyl)ethyl)-4-((2S,4S)-2-((difluoromethoxy)methyl)-4-(4-(difluoromethoxy)phenoxy)pyrrolidin-1-yl)benzamide], in data set [4], the “Inhibition rate (IL-17 in the ear)” value is 40.08%, the “IL-17 Concentration (pg/μg protein)” value was 17.85 * pg/μg protein and the “Effect on the secretion of IL-17 in the ear of mice compared with the model group” value is “significantly reduce”. In data set [1], the AUC(0-t) is 37 µM·h, the maximum concentration (Cmax) was determined as 4.8 µM, the half-life is 3.6 h and the bioavailability stood at 80%. Further, the “Rat Half-life t1/2 (min)” value with rat liver microsomes is listed as “Not metabolized”. For the same molecule, in data set [2], the half-life at 1.5 μM turned out to be 3.98 h and the CLint scaled at 1.5 μM worked out at 7.3 mL/min/kg. Besides, in data set [6] (90 mg/kg, oral gavage), the “Inhibition rate % (ear weight)” value was 2%. Also, the “Average ear weight” value in data set [6] (setting [8]) stood at 28.12 mg. Also, in data set [3], the “Effect on LPS-induced mouse blood inflammatory factor IL-17” value is given as “a certain tendency to inhibit”. Further, the Inhibition rate % in data set [3] (Table 8, 15 mg/kg) amounted to 10.55%. Moreover, the “IL-17” value in data set [3] (setting [9]) came out at 72.12 pg/mL. Besides, the half-maximal inhibitory concentration (IC50) on RORγt was found to be 9 nM.

As for `CCS(=O)(=O)c1ccc([C@H](CC#N)NC(=O)c2ccc(N3C[C@@H](Oc4ccc(OC(F)(F)F)nc4)C[C@H]3COC(F)F)cc2)cc1` [Example 11, N-((S)-2-cyano-1-(4-(ethylsulfonyl)phenyl)ethyl)-4-((2S,4S)-2-((difluoromethoxy)methyl)-4-((6-(trifluoromethoxy)pyridin-3-yl)oxy)pyrrolidin-1-yl)benzamide], the IC50 on RORγt amounted to 27 nM.

In the case of `CCS(=O)(=O)c1ccc([C@H](CC#N)NC(=O)c2ccc(N3C[C@H](NCC4CCC(F)(F)CC4)C[C@H]3COC(F)F)cc2)cc1` [Example 31], at RORγt, the half-maximal inhibitory concentration (IC50) amounted to 59.8 nM.

As for `CCS(=O)(=O)c1ccc(C(CC#N)NC(=O)c2ccc(N3CC(c4ccc(C(F)(F)F)cc4)C[C@H]3COC(F)F)cc2)cc1` (stereo in doubt) [Example 81, N—((S)-2-cyano-1-(4-(ethylsulfonyl)phenyl)ethyl)-4-((2S,4S)-2-((difluoromethoxy)methyl)-4-(4-(trifluoromethyl)phenyl)pyrrolidin-1-yl)benzamide], the half-maximal inhibitory concentration (IC50) on RORγt amounted to 44 nM.

With `CCS(=O)(=O)c1ccc([C@H](CC(=O)O)NC(=O)c2ccc(N3C[C@@H](Oc4ccc(C(F)(F)F)cc4)C[C@H]3COC(F)F)cc2)cc1` [Example 92, (S)-3-(4-((2S,4S)-2-((difluoromethoxy)methyl)-4-(4-(trifluoromethyl)phenoxy)pyrrolidin-1-yl)benzoylamino)-3-(4-(ethylsulfonyl)phenyl)propionic Acid], at RORγt, the IC50 worked out at 21 nM.

As to `CCS(=O)(=O)c1ccc([C@H](CC(N)=O)NC(=O)c2ccc(N3C[C@@H](Oc4ccc(C(F)(F)F)cc4)C[C@H]3COC(F)F)cc2)cc1` [Example 98, N—((S)-3-amino-1-(4-(ethylsulfonyl)phenyl)-3-oxopropyl)-4-((2S,4S)-2-((difluoromethoxy)methyl)-4-(4-(trifluoromethyl)phenoxy)pyrrolidin-1-yl)benzamide], the IC50 at RORγt was determined as 21 nM.

For the molecule `CCS(=O)(=O)c1ccc([C@H](CC#N)NC(=O)c2ccc(N3C[C@@H](Oc4ccc(-n5cnc(C)c5)cc4)C[C@H]3COC(F)F)cc2)cc1` [Example 45, N—((S)-2-cyano-1-(4-(ethylsulfonyl)phenyl)ethyl)-4-((2S,4S)-2-((difluoromethoxy)methyl)-4-(4-(4-methyl-1H-imidazol-1-yl)phenoxy)pyrrolidin-1-yl)benzamide], the IC50 on RORγt came out at 43 nM.

As to “N—((S)-2-cyano-1-(4-(ethylsulfonyl)phenyl)ethyl)-4-((2S,4S)-2-((difluoromethoxy)methyl)-4-(4-(4-fluoro-1H-pyrazol-1-yl)phenoxy)pyrrolidin-1-yl) benzamide [Example 161]”, the 50% inhibitory concentration (IC50) at RORγt was found to be 10.4 nM.
